The values that follow come from US5683725A, “Modulation of substance P by compounds containing calcium sulfate and methods relating thereto” (BioFrontiers, Inc., priority 1995, dated 1997).

Several values for one entry are separate records, joined by “and”; a condition that tells them apart may be missing. Equal values may be shown once. No end group written: not given here.

The test system of data set [1] is substance P-induced contractions of guinea pig ileum. The experiment in a line: Antagonism of substance P: inhibition of substance P-induced contractions of isolated guinea pig ileum. The note with it: for Antagonist Activity (% Inhibition): 100 μM, substance P-induced contractions of isolated guinea pig ileum, 37° C., with atropine, diphenhydramine, indomethacin; for Modulation of substance P (in words): conclusion from Table 1. An excerpt:
The ability of the calcium sulfate compounds of this invention to modulate substance P may be assayed by known techniques, such as those disclosed by Mizrahi et al. (Eur. J. Pharmacol. 91:139-140, 1983) and Holzer et al. (P. Eur. J. Pharmacol. 91:83-88, 1983). For example, PanLabs Test Numbers 3-0580 screen the ability of compounds to function as substance P antagonists by determining the ability of the compound to inhibit substance P-induced contractions of guinea pig ileum (see Example 6 herein below).
This example illustrates the ability of representative calcium sulfate compounds of this invention to modulate substance P by functioning as substance P antagonists. Activity was measured by the procedures disclosed by Mizrahi et al. (Eur. J. Pharmacol. 91:139-140, 1983) and Holzer et al., (Eur. J. Pharmacol. 91:83-88, 1983). Specifically, isolated guinea pig ileum, bathed in physiological salt solution containing atropine (4.5 μM), diphenhydramaine (3.4 μM), and indomethacin (2.8 μM) at 37° C. was used. The ability of a test compounds to inhibit substance P-induced contractions of the illeum indicates antagonist activity.

Data set [2] can be described thus: Single oral dose toxicity in Sprague Dawley rats, 14 day observation. The format is in vivo, rat (Sprague Dawley). The note with it: single oral dose 5 g/kg. The protocol:
This example illustrates the non-toxic nature of a representative calcium sulfate compound of this invention (i.e., syngenite).
To determine the potential toxicity and/or toxic effects of syngenite when administered as a single oral dose in rats, 5 male and 5 female Sprague Dawley rats (200-300 grams) were administered syngenite at a dose level of 5 g/kg body weight by syringe and suitable intubation tubes.
The body weight of each rat was recorded (in grams) just prior to administration of syngenite (Day 0), and weekly thereafter for two weeks (i.e., Day 7 and Day 14).

The test system of the next data set is cluster headaches. To be noted: intranasal, humans; cited from earlier work.
Another data set concerns neurogenic inflammation. The note with it: pretreatment of the oral mucosa; cited from earlier work.
The test system of another data set is stomach injury. The note with it: cited from earlier work.
In another data set the test system is nasal protein output. The note with it: exogenously applied, allergic rhinitis patients; cited from earlier work.
The test system of another data set is febrile response. To be noted: microinjected into the preoptic area of conscious guinea pigs; cited from earlier work.

Turning to `O.O=S(=O)([O-])[O-].O=S(=O)([O-])[O-].O=S(=O)([O-])[O-].O=S(=O)([O-])[O-].O=S(=O)([O-])[O-].O=S(=O)([O-])[O-].[Ca+2].[Ca+2].[Ca+2].[Ca+2].[Ca+2].[K+].[K+]` [Gorgeyite], in data set [1], the “Antagonist Activity (% Inhibition)” value amounted to 16% and the “Modulation of substance P (in words)” value is “effective modulating agents of substance P”.
In the same order, the values of `O.O.O=S(=O)([O-])[O-].[Ca+2]` [Gypsum, calcium sulfate dihydrate] are 39% and “effective modulating agents of substance P”.
On to `O.O=S(=O)(O)O.O=S(=O)(O)O.[Ca].[K].[K]` [Syngenite], for which, in data set [1], the “Antagonist Activity (% Inhibition)” value is recorded as 40% and the “Modulation of substance P (in words)” value is “effective modulating agents of substance P”. For the same molecule, in data set [2] (female rats), the “Body weight, Day 7” value was 255 grams and 266 grams and 251 grams and 269 grams and 279 grams; the “Body weight, Day 14” value was 256 grams and 273 grams and 287 grams and 299 grams. Also, in data set [2] (male rats), the “Body weight, Day 7” value was 350 grams and 333 grams and 329 grams and 336 grams and 337 grams; the “Body weight, Day 14” value is 395 grams and 374 grams and 375 grams and 368 grams and 386 grams. Further, the “Gross abnormalities at necropsy” value in data set [2] is listed as “No gross abnormalities in any of the animals were observed”. For the same molecule, in data set [2] (5 male and 5 female rats, 14 days), the Survival / mortality result is reported as “All ten test animals survived the 14 day observation period”. Moreover, in data set [2] (14 days), the Appearance of animals result is “all animals appeared normal” and the Clinical observations entry is given as “No clinical observations were noted”. Also, in data set [2] (rats), the “Toxicity (overall)” value was “non-toxic”.
With `COc1cc(CNC(=O)CCCC/C=C/C(C)C)ccc1O` [capsaicin], in the data set with cluster headaches, the “Severity of cluster headaches” value was “decrease the severity of cluster headaches”. For the same molecule, the “Neurogenic inflammation upon local administration of substance P” value with neurogenic inflammation is “prevents neurogenic inflammation”. Moreover, the “Area of stomach injury” value with stomach injury (intragastric, prior to challenge with 30% ETOH) is “reduced the area of stomach injury”.
Consider “substance P: undecapeptide, member of the tachykinin family of mammalian regulatory peptides (RPKPQQFFGLM; ends and bridges not checked; UniProt P20366 58-68, looked up)”, for which the Nasal protein output entry with nasal protein output is “causes an increase in nasal protein output”. The Temperature result with febrile response was “caused an increase in temperature”. In addition, the “Areas of injury (stomach)” value in the data set with stomach injury (given IV) is “increased the areas of injury”.
